According to US20100183625A1, “Treatment of Mucositis with Kallikrein Inhibitors” (Dyax Corp., priority 2009, published 2010):
Positions of bridges follow the written chain, without caps; N, C: chain ends. No end group written: not given here.

Experiments:
[1] = biological target: plasma kallikrein (NP_000883) (Homo sapiens, UniProt P03952); conditions: cited from earlier work
[2] = Lot 100808, phosphate buffered saline, pH 7.0, 5.6 mg/mL
pKal = pKal (Homo sapiens, UniProt P03952); conditions: read-out: Ki,app; active site inhibitor of pKal; cited from earlier work
pKal, sequence (P03952 20-638): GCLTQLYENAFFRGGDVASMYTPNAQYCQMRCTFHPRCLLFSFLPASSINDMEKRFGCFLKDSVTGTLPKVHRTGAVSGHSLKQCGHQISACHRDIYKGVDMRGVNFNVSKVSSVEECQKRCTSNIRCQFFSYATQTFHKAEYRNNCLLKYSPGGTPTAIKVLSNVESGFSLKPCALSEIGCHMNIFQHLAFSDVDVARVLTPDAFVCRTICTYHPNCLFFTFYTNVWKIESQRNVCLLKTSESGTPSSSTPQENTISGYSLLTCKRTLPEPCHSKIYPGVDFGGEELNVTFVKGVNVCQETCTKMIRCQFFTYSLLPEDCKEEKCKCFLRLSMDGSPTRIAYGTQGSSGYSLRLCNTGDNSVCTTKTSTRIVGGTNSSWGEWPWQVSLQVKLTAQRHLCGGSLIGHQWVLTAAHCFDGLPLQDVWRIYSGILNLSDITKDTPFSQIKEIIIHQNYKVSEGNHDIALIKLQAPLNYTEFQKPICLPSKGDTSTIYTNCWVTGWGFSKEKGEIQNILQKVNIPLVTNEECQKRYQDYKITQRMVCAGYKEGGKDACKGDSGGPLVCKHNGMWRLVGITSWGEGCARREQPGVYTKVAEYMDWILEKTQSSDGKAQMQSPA

plasma kallikrein (NP_000883), sequence (P03952 20-638): as above

Row | Sequence | Ki [1] | Stability [2] | Ki (pKal)
1 | EAMHSFCAFKADDGPCRAAHPRWFFNIFTRQCEEFIYGGCEGNQNRFESLEECKKMCTRD (disulfide 7-57, 16-40, 32-53) [DX-88] | < 1 nM | – | –
2 | EAMHSFCAFKADDGPCRAAHPRWFFNIFTRQCEEFSYGGCGGNQNRFESLEECKKMCTRD (disulfide 7-57, 16-40, 32-53) [EPI-KAL2] | – | Stable for 24 hours at 2-4 °C | 0.1 nM
